According to US10508120B2, “TYK2 inhibitors and uses thereof” (Nimbus Lakshmi, Inc., priority 2017, dated 2019):
Read-outs that look alike come from different tables or passages of the source.

Experiments:
Tyk2 kinase domain (DH1) = Tyk2 kinase domain (DH1) (Homo sapiens (Human), UniProt P29597); assay: Tyk2 Radioactive Kinase Assay; type: biochemical; settings: for inhibition at 10 µM: read-out: Tyk2 JH1% Inhibition @ 10 μM
Procedure, shortened: (§1)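 Compounds were tested at a single concentration of 10 μM in a radiometric kinase format against each isolated kinase domain. Activity is reported as percent inhibition at that concentration.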

[1] = target: human TYK2 (JH2domain-pseudokinase) (Homo sapiens (Human), UniProt P29597); assay: TYK2 JH2 Domain Binding Assay (KINOMEscan)
Procedure, shortened: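 Competition binding of a DNA-tagged fusion of human TYK2 JH2 pseudokinase (G556–D888) with NFkB DNA-binding domain, from HEK293 extracts (<0.1 nM final), against immobilised ligand beads; 1 h shaking at room temperature, 0.9% DMSO. Bound kinase quantified by qPCR.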

JAK2 kinase domain (JH1) = JAK2 kinase domain (JH1) (Homo sapiens (Human), UniProt O60674); assay: JAK2 Radioactive Kinase Assay; type: biochemical; settings: for inhibition at 10 µM: read-out: JAK2 JH1% Inhibition @ 10 μM
Procedure, shortened: as §1

Sequence of JAK2 kinase domain (JH1) (O60674 849-1124): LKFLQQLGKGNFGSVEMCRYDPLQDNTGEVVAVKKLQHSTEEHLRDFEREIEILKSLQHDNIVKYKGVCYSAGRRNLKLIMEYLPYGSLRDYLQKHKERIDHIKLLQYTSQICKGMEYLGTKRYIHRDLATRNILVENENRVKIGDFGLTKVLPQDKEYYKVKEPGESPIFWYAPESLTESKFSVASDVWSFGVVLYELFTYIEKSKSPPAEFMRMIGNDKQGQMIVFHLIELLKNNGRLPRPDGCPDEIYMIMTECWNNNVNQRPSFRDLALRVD
Sequence of human TYK2 (JH2domain-pseudokinase) (P29597 556-888): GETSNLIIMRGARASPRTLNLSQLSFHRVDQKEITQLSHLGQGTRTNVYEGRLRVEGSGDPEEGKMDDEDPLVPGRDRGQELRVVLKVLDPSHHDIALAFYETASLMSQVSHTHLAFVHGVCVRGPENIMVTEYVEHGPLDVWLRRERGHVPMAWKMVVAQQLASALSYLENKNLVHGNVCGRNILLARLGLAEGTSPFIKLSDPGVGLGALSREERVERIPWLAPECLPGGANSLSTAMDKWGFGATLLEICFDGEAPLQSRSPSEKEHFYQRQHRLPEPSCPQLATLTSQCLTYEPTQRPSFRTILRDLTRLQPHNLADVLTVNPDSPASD
Sequence of Tyk2 kinase domain (DH1) (P29597 897-1176): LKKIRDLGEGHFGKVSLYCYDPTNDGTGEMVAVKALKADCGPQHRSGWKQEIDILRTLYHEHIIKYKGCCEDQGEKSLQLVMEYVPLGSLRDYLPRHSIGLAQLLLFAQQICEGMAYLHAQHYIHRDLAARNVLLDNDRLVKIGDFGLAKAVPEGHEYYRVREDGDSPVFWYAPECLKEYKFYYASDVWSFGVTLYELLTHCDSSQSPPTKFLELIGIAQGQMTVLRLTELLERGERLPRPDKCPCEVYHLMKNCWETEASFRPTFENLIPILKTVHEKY

Kd [1]	inhibition at 10 µM (Tyk2 kinase domain (DH1); compound at 10 μM, ATP 10 μM)	inhibition at 10 µM (JAK2 kinase domain (JH1); compound at 10 μM, ATP 10 μM)	SMILES	also measured
0.2 to 1 nM			CNc1cc(Nc2cccn([C@H]3CCCOC3)c2=O)nc2c(C(=O)N[C@@H]3CC[C@@H]3O)cnn12 [I-804]	Tyk2 JH1% Inhibition @ 10 μM (Tyk2 kinase domain (DH1); compound at 10 μM, ATP 10 μM): A (percent inhibition at 10 μM lower than 50); JAK2 JH1% Inhibition @ 10 μM (JAK2 kinase domain (JH1); compound at 10 μM, ATP 10 μM): A (percent inhibition at 10 μM lower than 50)
0.2 to 1 nM			CNc1cc(Nc2cccn([C@@H]3CCCOC3)c2=O)nc2c(C(=O)N[C@H]3CC[C@H](O)C3)cnn12 [I-738]	Tyk2 JH1% Inhibition @ 10 μM (Tyk2 kinase domain (DH1); compound at 10 μM, ATP 10 μM): A (percent inhibition at 10 μM lower than 50); JAK2 JH1% Inhibition @ 10 μM (JAK2 kinase domain (JH1); compound at 10 μM, ATP 10 μM): A (percent inhibition at 10 μM lower than 50)
0.2 to 1 nM	< 50%	< 50%	CNc1cc(Nc2cccnc2OC2CC2)nc2c(C(=O)NC3CC(F)(F)C3)cnn12 [I-339, 5-((2-cyclopropoxypyridin-3-yl)amino)-N-(3,3-difluorocyclobutyl)-7-(methylamino)pyrazolo[1,5-a]pyrimidine-3-carboxamide]	
0.2 to 1 nM	< 50%	< 50%	CNc1cc(Nc2cccn([C@H]3CCCOC3)c2=O)nc2c(C(=O)N[C@H]3CC[C@H](O)C3)cnn12 (stereo in doubt) [I-701, N-(3-hydroxycyclopentyl)-7-(methylamino)-5-((2-oxo-1-((R)-tetrahydro 2H-pyran-3-yl)-1,2-dihydropyridin-3-yl)amino)pyrazolo[1,5-a]pyrimidine-3-carboxamide]	
< 0.2 nM	< 50%	< 50%	CNc1cc(Nc2cccnc2OCCOC)nc2c(C(=O)NC3CC3)cnn12 [I-218]	
< 0.2 nM			CNc1cc(Nc2cccn([C@@H]3C[C@H]3F)c2=O)nc2c(C(=O)N[C@@H]3CC[C@H]3O)cnn12 [I-1091]	inhibition at 10 µM (Tyk2 kinase domain (DH1); 10 μM compound, 10 μM ATP): < 50%; inhibition at 10 µM (JAK2 kinase domain (JH1); 10 μM compound, 10 μM ATP): < 50%
0.2 to 1 nM	< 50%	< 50%	CNc1cc(Nc2cccn(C3CCOCC3)c2=O)nc2c(C(=O)N[C@@H]3CC[C@H]3O)cnn12 [I-597]	
< 0.2 nM	< 50%	< 50%	CNc1cc(Nc2cccn(CCOC3CC3)c2=O)nc2c(C(=O)N[C@@H]3C[C@@H]3F)cnn12 [I-454]	
< 0.2 nM	< 50%	50 to 70%	CNc1cc(Nc2cccc([C@@H]3CCCOC3)n2)nc2c(C(=O)NC3CC3)cnn12 [I-548]	
< 0.2 nM	< 50%	< 50%	CNc1cc(Nc2cccnc2OC2CC2)nc2c(C(=O)N[C@@H]3CC[C@@H](O)C3)cnn12 [I-490, 5-((2-cyclopropoxypyridin-3-yl)amino)-N-((1R,3R)-3-hydroxycyclopentyl)-7-(methylamino)pyrazolo[1,5-a]pyrimidine-3-carboxamide]	
0.2 to 1 nM	< 50%	< 50%	CNc1cc(-c2cn(C(C)C)c3ncc(C)cc23)nc2c(C(=O)N[C@H]3C[C@H]3F)cnn12 [I-257]	
< 0.2 nM	< 50%	< 50%	CNc1cc(-c2cn(CCN3CCCCC3)c3ncccc23)nc2c(C(=O)N[C@@H]3CC[C@H]3O)cnn12 [I-794]	
< 0.2 nM	< 50%	< 50%	CNc1cc(Nc2cccc(N3CCCC3=O)n2)nc2c(C(=O)N[C@@H]3CC[C@@H]3O)cnn12 [I-679]	
1 to 10 nM			CNc1cc(Nc2cccnc2OC)nc2c(C(=O)N[C@H]3CC[C@@]3(C)O)cnn12 (stereo in doubt) [I-911, N-(2-hydroxy-2-methylcyclobutyl)-5-((2-methoxypyridin-3-yl)amino)-7-(methylamino)pyrazolo[1,5-a]pyrimidine-3-carboxamide]	Tyk2 JH1% Inhibition @ 10 μM (Tyk2 kinase domain (DH1); 10 μM compound, 10 μM ATP): A (percent inhibition at 10 μM lower than 50); JAK2 JH1% Inhibition @ 10 μM (JAK2 kinase domain (JH1); 10 μM compound, 10 μM ATP): A (percent inhibition at 10 μM lower than 50)
0.2 to 1 nM	< 50%	< 50%	CNc1cc(Nc2cccnc2O[C@H]2C[C@@H](OC)C2)nc2c(C(=O)NC3CC3)cnn12 [I-184]	
0.2 to 1 nM			CNc1cc(Nc2cccn([C@@H]3CCC[C@@H](OC)C3)c2=O)nc2c(C(=O)NCC(C)(C)CO)cnn12 [I-1028]	inhibition at 10 µM (Tyk2 kinase domain (DH1); 10 μM compound, 10 μM ATP): < 50%; inhibition at 10 µM (JAK2 kinase domain (JH1); 10 μM compound, 10 μM ATP): < 50%
0.2 to 1 nM	< 50%	< 50%	CNc1cc(Nc2cccnc2OC)nc2c(C(=O)N[C@H]3[C@@H]4COC[C@@H]43)cnn12 [I-445, N-((1R,5S,6r)-3-oxabicyclo[3.1.0]hexan-6-yl)-5-((2-methoxypyridin-3-yl)amino)-7-(methylamino)pyrazolo[1,5-a]pyrimidine-3-carboxamide]	
< 0.2 nM	< 50%	< 50%	CNc1cc(Nc2cccn(-c3cnn(C)c3F)c2=O)nc2c(C(=O)N[C@H]3C[C@H]3F)cnn12 [I-719]	
0.2 to 1 nM	< 50%	< 50%	CNc1cc(Nc2cccnc2OC)nc2c(C(=O)N[C@H]3CC[C@H](O)C3)cnn12 [I-467]	
0.2 to 1 nM			CNc1cc(-c2cn(CCN3CCN(C)CC3)c3ncccc23)nc2c(C(=O)N[C@@H]3CC[C@@H]3O)cnn12 [I-907, N-((1R,2S)-2-hydroxycyclobutyl)-7-(methylamino)-5-(1-(2-(4-methylpiperazin-1-yl)ethyl)-1H-pyrrolo[2,3-b]pyridin-3-yl)pyrazolo[1,5-a]pyrimidine-3-carboxamide]	inhibition at 10 µM (Tyk2 kinase domain (DH1); 10 μM compound, 10 μM ATP): < 50%; inhibition at 10 µM (JAK2 kinase domain (JH1); 10 μM compound, 10 μM ATP): < 50%

Kd [1]	inhibition at 10 µM (Tyk2 kinase domain (DH1); compound at 10 μM, ATP 10 μM)	inhibition at 10 µM (JAK2 kinase domain (JH1); compound at 10 μM, ATP 10 μM)	SMILES	also measured
< 0.2 nM	< 50%	< 50%	CNc1cc(Nc2cccn([C@@H]3CCCOC3)c2=O)nc2c(C(=O)N[C@@H]3CCC[C@@H](O)C3)cnn12 [I-735]	
0.2 to 1 nM	< 50%	< 50%	CNc1cc(Nc2cccn([C@H]3CCCOC3)c2=O)nc2c(C(=O)N[C@H]3COC[C@H]3O)cnn12 [I-753]	
< 0.2 nM			CNc1cc(Nc2cccn(-c3ccccc3F)c2=O)nc2c(C(=O)NC[C@@H](C)CO)cnn12 [I-1076]	inhibition at 10 µM (Tyk2 kinase domain (DH1); 10 μM compound, 10 μM ATP): < 50%; inhibition at 10 µM (JAK2 kinase domain (JH1); 10 μM compound, 10 μM ATP): < 50%
> 10 nM	< 50%	< 50%	Cc1cc(Nc2cc(N)n3ncc(C(N)=O)c3n2)cc(N2CCCC2=O)n1 [I-55]	
< 0.2 nM	< 50%	< 50%	CNc1cc(Nc2cccn([C@H]3CC[C@H](OC)CC3)c2=O)nc2c(C(=O)NCC(C)CO)cnn12 (stereo partly drawn) [I-613]	
0.2 to 1 nM	< 50%	< 50%	CNc1cc(-c2nn([C@@H]3CCOC3)c3ncccc23)nc2c(C(=O)N[C@@H]3C[C@@H]3F)cnn12 [I-517]	
< 0.2 nM			CNc1cc(Nc2cccn([C@H]3CCC[C@@H](OC)C3)c2=O)nc2c(C(=O)N[C@@H]3CC[C@H]3OC)cnn12 [I-1126]	inhibition at 10 µM (Tyk2 kinase domain (DH1); 10 μM compound, 10 μM ATP): < 50%; inhibition at 10 µM (JAK2 kinase domain (JH1); 10 μM compound, 10 μM ATP): < 50%
0.2 to 1 nM	< 50%	< 50%	CNc1cc(Nc2cccn(C3=NC(C)(C)CS3)c2=O)nc2c(C(=O)NC3CC3)cnn12 [I-502]	
0.2 to 1 nM	< 50%	< 50%	CNc1cc(Nc2cccc(N3CC[C@@H](OC)C3)n2)nc2c(C(=O)NC3CC3)cnn12 [I-481]	
< 0.2 nM			CNc1cc(Nc2cccn([C@H]3CCN(CCC#N)C3)c2=O)nc2c(C(=O)N[C@@H]3C[C@@H]3F)cnn12 [I-986]	inhibition at 10 µM (Tyk2 kinase domain (DH1); 10 μM compound, 10 μM ATP): < 50%; inhibition at 10 µM (JAK2 kinase domain (JH1); 10 μM compound, 10 μM ATP): < 50%
> 10 nM	< 50%	< 50%	CNc1cc(Nc2cccnc2OC(F)(F)F)nc2c(C(=O)NC3COC3)cnn12 [I-92]	
0.2 to 1 nM	< 50%	70 to 90%	NC(=O)c1cnn2c(N)cc(Nc3cccc(N4CCOCC4)c3Cl)nc12 [I-22]	
0.2 to 1 nM			CNc1cc(Nc2cccn([C@H]3CCN(C)C[C@H]3F)c2=O)nc2c(C(=O)NC3CC3)cnn12 [I-687]	Tyk2 JH1% Inhibition @ 10 μM (Tyk2 kinase domain (DH1); compound at 10 μM, ATP 10 μM): A (percent inhibition at 10 μM lower than 50); JAK2 JH1% Inhibition @ 10 μM (JAK2 kinase domain (JH1); compound at 10 μM, ATP 10 μM): A (percent inhibition at 10 μM lower than 50)
< 0.2 nM	< 50%	< 50%	CNc1cc(Nc2cccn(C3CCN(C)CC3)c2=O)nc2c(C(=O)N[C@@H]3CC[C@@H]3O)cnn12 [I-609]	
< 0.2 nM			CNc1cc(-c2cn(CCN3CCN(C)CC3)c3ncccc23)nc2c(C(=O)N[C@H]3CC[C@H]3O)cnn12 (stereo in doubt) [I-851, N-(2-hydroxycyclobutyl)-7-(methylamino)-5-(1-(2-(4-methylpiperazin-1-yl)ethyl)-1H-pyrrolo[2,3-b]pyridin-3-yl)pyrazolo[1,5-a]pyrimidine-3-carboxamide]	inhibition at 10 µM (Tyk2 kinase domain (DH1); 10 μM compound, 10 μM ATP): < 50%; inhibition at 10 µM (JAK2 kinase domain (JH1); 10 μM compound, 10 μM ATP): < 50%
0.2 to 1 nM			CNc1cc(Nc2cccn([C@@H]3CCCN(CCF)C3)c2=O)nc2c(C(=O)N[C@@H]3C[C@@H]3F)cnn12 [I-901]	inhibition at 10 µM (Tyk2 kinase domain (DH1); 10 μM compound, 10 μM ATP): < 50%; inhibition at 10 µM (JAK2 kinase domain (JH1); 10 μM compound, 10 μM ATP): < 50%
1 to 10 nM			CNc1cc(Nc2cccc(N3CC4(CCO4)C3)n2)nc2c(C(=O)N[C@@H]3CC[C@@H]3O)cnn12 [I-873]	inhibition at 10 µM (Tyk2 kinase domain (DH1); 10 μM compound, 10 μM ATP): < 50%; inhibition at 10 µM (JAK2 kinase domain (JH1); 10 μM compound, 10 μM ATP): < 50%
< 0.2 nM	< 50%	< 50%	CNc1cc(Nc2cc(Cl)cn(C3CCOCC3)c2=O)nc2c(C(=O)N[C@@H]3CC[C@@H]3O)cnn12 [I-713]	
> 10 nM			CNc1cc(Nc2cccn([C@H]3CCCOC3)c2=O)nc2c(C(=O)N[C@H]3COC[C@H]3O)cnn12 [I-784]	Tyk2 JH1% Inhibition @ 10 μM (Tyk2 kinase domain (DH1); compound at 10 μM, ATP 10 μM): A (percent inhibition at 10 μM lower than 50); JAK2 JH1% Inhibition @ 10 μM (JAK2 kinase domain (JH1); compound at 10 μM, ATP 10 μM): A (percent inhibition at 10 μM lower than 50)
